The results in this text go back to article PMC4672351, “Drug-Drug Interaction Potentials of Tyrosine Kinase Inhibitors via Inhibition of UDP-Glucuronosyltransferases” (Scientific Reports, 2015).

For series [1], the target named is T1, UGT1A4 (Homo sapiens, UniProt P22310).
T1 sequence (P22310 29-534): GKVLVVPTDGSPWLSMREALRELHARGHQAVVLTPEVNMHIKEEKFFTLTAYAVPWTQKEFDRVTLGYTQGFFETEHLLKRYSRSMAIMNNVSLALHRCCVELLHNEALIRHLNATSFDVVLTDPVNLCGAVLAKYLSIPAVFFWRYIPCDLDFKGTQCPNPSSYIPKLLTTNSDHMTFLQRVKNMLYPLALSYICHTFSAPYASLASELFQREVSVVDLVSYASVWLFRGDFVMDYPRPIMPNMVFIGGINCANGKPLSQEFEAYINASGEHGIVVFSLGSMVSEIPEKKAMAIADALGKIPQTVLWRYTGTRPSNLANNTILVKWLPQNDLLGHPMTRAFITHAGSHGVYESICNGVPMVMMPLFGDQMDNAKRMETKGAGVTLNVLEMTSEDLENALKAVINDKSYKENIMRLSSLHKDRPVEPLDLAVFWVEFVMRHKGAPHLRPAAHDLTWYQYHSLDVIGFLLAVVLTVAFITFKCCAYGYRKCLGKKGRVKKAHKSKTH
The series is described as follows: Inhibition of TFP glucuronidation by recombinant UGT1A4. The conditions noted are these: 100 μM inhibitor; TFP substrate; positive control hecogenin.

Series [2] deals with T2, UGT1A10 (Homo sapiens, UniProt Q9HAW8).
T2 sequence (Q9HAW8 26-530): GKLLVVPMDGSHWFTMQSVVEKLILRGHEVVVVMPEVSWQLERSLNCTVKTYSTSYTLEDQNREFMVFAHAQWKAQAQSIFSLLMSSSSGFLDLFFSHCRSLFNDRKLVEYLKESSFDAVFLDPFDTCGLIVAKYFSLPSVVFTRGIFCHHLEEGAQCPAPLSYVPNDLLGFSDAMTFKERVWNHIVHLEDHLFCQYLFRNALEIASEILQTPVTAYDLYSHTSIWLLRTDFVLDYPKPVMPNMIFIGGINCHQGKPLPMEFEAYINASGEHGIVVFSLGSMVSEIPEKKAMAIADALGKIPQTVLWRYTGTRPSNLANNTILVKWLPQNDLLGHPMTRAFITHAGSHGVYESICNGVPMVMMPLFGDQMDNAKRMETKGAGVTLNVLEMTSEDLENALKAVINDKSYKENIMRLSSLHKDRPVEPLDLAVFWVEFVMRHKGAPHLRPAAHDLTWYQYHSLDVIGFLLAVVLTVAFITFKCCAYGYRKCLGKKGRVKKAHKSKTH
Briefly: Inhibition of 4-MU glucuronidation by recombinant UGT1A10. Conditions: recombinant UGT1A10, pH 7.4, probe 4-MU.

Series [3] concerns the target T3, UGT1A8 (Homo sapiens, UniProt Q9HAW9).
T3 sequence (Q9HAW9 26-530): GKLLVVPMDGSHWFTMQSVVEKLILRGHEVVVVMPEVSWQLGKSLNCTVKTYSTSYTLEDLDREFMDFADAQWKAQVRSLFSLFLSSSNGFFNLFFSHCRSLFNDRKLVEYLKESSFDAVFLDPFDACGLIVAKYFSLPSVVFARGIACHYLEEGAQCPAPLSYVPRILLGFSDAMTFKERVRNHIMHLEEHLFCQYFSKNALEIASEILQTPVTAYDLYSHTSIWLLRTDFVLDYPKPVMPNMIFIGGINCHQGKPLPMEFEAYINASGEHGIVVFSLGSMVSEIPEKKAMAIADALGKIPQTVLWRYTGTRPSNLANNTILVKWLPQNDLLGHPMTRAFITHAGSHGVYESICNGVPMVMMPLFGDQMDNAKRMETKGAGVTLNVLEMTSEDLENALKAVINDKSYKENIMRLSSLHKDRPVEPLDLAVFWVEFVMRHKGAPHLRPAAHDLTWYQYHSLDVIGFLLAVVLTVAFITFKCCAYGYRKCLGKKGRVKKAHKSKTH
The series is described as follows: Inhibition of 4-MU glucuronidation by recombinant UGT1A8. The conditions noted are these: recombinant UGT1A8, pH 7.4, probe 4-MU.

Series [4] addresses T4, UGT1A1 (Homo sapiens, UniProt P22309).
T4 sequence (P22309 26-533): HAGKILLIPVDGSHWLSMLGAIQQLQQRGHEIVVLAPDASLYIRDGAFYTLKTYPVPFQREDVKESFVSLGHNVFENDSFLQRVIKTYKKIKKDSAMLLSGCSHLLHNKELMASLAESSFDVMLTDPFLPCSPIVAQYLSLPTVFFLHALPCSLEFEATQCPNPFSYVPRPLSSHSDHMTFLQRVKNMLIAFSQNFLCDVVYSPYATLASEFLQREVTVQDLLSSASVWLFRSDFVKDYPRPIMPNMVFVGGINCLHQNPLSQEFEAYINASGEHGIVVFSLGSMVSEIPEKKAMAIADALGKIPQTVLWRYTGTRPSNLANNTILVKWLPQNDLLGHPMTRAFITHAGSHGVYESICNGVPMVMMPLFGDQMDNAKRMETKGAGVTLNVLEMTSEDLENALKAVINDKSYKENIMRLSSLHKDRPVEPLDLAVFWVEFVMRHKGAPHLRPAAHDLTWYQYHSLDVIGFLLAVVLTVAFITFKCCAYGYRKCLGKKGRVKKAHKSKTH
Briefly: Inhibition of 4-MU glucuronidation by recombinant UGT1A1. Conditions: human, recombinant UGT1A1, pH 7.4, probe 4-MU.

For series [5], the target named is T5, UGT1A7 (Homo sapiens, UniProt Q9HAW7).
T5 sequence (Q9HAW7 26-530): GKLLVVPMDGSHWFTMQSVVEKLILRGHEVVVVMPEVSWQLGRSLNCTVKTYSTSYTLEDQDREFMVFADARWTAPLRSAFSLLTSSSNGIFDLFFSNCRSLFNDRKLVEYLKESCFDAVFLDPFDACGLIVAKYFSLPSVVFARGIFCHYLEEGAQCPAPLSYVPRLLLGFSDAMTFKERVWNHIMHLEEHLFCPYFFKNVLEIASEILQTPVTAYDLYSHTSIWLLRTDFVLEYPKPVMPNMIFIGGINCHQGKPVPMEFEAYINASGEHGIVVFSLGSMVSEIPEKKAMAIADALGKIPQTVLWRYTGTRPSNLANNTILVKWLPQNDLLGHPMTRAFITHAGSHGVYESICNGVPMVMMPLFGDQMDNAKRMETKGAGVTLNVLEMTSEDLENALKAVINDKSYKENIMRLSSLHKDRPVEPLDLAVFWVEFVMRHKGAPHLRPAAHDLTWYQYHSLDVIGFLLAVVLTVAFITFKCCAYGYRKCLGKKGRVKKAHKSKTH
Briefly: Inhibition of 4-MU glucuronidation by recombinant UGT1A7. Conditions: human, recombinant UGT1A7, pH 7.4, probe 4-MU.

Series [6] deals with T6, UGT1A9 (Homo sapiens, UniProt O60656).
T6 sequence (O60656 26-530): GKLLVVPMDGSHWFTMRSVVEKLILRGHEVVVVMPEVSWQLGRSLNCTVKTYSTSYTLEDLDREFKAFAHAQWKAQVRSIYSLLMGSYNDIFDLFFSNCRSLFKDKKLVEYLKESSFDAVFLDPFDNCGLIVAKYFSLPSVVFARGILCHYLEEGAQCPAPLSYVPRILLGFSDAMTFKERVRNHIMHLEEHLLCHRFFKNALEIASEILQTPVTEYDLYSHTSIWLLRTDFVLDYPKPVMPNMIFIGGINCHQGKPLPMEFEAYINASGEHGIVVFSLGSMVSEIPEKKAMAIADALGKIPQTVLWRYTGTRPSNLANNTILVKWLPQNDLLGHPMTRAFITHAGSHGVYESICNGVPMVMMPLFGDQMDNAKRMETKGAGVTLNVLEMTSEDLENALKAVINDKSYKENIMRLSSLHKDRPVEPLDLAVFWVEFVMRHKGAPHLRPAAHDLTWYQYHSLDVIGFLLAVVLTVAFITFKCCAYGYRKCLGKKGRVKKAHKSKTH
The series is described as follows: in vitro. The conditions noted are these: recombinant UGT1A9, pH 7.4, probe 4-MU.

The target of series [7] is T7, UGT1A6 (Homo sapiens, UniProt P19224).
T7 construct: purchased BD Gentest (Woburn, MA); host or cells: baculovirus-infected insect cells
T7 sequence (P19224 27-532): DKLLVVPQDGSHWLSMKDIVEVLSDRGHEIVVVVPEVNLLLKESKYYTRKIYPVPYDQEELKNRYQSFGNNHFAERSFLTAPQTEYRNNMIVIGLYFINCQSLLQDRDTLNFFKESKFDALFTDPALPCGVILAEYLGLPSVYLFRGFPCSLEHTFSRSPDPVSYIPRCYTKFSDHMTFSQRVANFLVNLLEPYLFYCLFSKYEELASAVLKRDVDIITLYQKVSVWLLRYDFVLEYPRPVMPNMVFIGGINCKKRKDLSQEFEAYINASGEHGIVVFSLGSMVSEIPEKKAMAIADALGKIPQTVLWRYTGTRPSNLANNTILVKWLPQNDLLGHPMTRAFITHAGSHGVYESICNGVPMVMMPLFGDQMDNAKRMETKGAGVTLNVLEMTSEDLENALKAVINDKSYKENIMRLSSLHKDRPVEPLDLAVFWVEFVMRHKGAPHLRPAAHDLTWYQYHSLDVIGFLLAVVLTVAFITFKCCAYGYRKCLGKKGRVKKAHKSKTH
The series is described as follows: Inhibition of 4-MU glucuronidation by recombinant UGT1A6. In kind it is in vitro ADME. Conditions: recombinant UGT1A6, pH 7.4, probe 4-MU, 100 μM inhibitor, 4-MU substrate, positive control diclofenac, read-out: Remaining activities (%) of UGT1A6.

Turning to hecogenin, the “Remaining activities (%) of UGT1A4” value in series [1] is listed as 20.3 ± 6.6%.
`CCCCC1C(=O)N(c2ccccc2)N(c2ccccc2)C1=O` [phenylbutazone]: the activity at 120 min, 100 µM in series [2] worked out at 37.8 ± 8%. The activity at 30 min, 100 µM in series [3] is 40.2 ± 5.3%.
`O=C(O)Cc1ccccc1Nc1c(Cl)cccc1Cl` [diclofenac]: the activity at 120 min, 100 µM in series [4] is 37 ± 2.1%. The values for the activity at 30 min, 100 µM in series [5], in series [6] and in series [7] were 25.6 ± 11.2%, 15.2 ± 1.2% and 28.2 ± 10%, respectively.
